# Measurements: patent US11059784B2, “Oxime ether compounds” (BRISTOL-MYERS SQUIBB COMPANY, priority 2017, dated 2021)
# Tests used:
# S1P1 [1] = molecular target: T1, S1P1 (Homo sapiens (Human), UniProt P21453); test: S1P1 Binding Assay (33P-S1P ligand competition, CHO membranes); details: membranes from CHO cells expressing human S1P1
# Experimental: Membranes were prepared from CHO cells expressing human S1P1. Cells pellets (1×10^9 cells/pellet) were suspended in buffer containing 20 mM HEPES (4-(2-hydroxyethyl)-1-piperazineethanesulfonic acid), pH 7.5, 50 mM NaCl, 2 mM EDTA (ethylenediamine tetraacetic acid) and Protease Inhibitor cocktail (Roche), and disrupted on ice using the Polytron homogenizer. The homogenate was centrifuged at 20,000 rpm (48,000 g) and the supernatant was discarded. The membrane pellets were resuspended in buffer containing 50 mM HEPES, pH 7.5, 100 mM NaCl, 1 mM MgCl2, 2 mM EDTA and stored in aliquots at −80° C. after protein concentration determination.
# Membranes (2 μg/well) and 0.03 nM final concentration of ^33P-S1P ligand (1 mCi/ml, Perkin Elmer or American Radiolabeled Chemicals) diluted in assay buffer (50 mM HEPES, pH7.4, 5 mM MgCl2, 1 mM CaCl2), 0.5% fatty acid free BSA (bovine serum albumin), 1 mM NaF) were added to the compound plates (384 Falcon v-bottom plate (0.5 μl/well in a 11 point, 3-fold dilution). Binding was performed for 45 minutes at room temperature, terminated by collecting the membranes onto 384-well Millipore FB filter plates, and radioactivity was measured by TOPCOUNT®. The competition data of the test compounds over a range of concentrations was plotted as percentage inhibition of radioligand specific binding. The IC50 is defined as the concentration of competing ligand needed to reduce specific binding by 50%.
# S1P1 [2] = molecular target: T1, S1P1; test: Receptor [35S] GTPγS Binding Assay, S1P1; assay type: biochemical; details: membranes from S1P1/CHO cells
# Experimental: (§1) Receptor [^35S] GTPγS Binding Assays:
# (§2) Compounds were loaded in a 384 Falcon v-bottom plate (0.5 μl/well in an 11 point, 3-fold dilution). Membranes prepared from S1P1/CHO cells or EDG3-Gal5-bla HEK293T cells (EDG3 equivalent S1P3) were added to the compound plate ([…], final protein 3 μg/well) with MULTIDROP®. [^35S]GTP (1250 Ci/mmol, Perkin Elmer) was diluted in assay buffer: 20 mM HEPES, pH7.5, 10 mM MgCl2, 150 mM NaCl, 1 mM EGTA (ethylene glycol tetraacetic acid), 1 mM DTT (Dithiothreitol), 10 μM GDP, 0.1% fatty acid free BSA, and 10 μg/ml Saponin to 0.4 nM. 40 μl of the [35S] GTP solution was added to the compound plate with a final concentration of 0.2 nM. The reaction was kept at room temperature for 45 min. At the end of incubation, all the mixtures in the compound plate were transferred to Millipore 384-well FB filter plates via the VELOCITY11 ® Vprep liquid handler. The filter plate was washed with water 4 times by using the manifold Embla plate washer and dried at 60° C. for 45 min. MicroScint 20 scintillation fluid (30 μl) was added to each well for counting on the Packard TOPCOUNT®. EC50 is defined as the agonist concentration that corresponds to 50% of the Ymax (maximal response) obtained for each individual compound tested.
# A smaller value for GTPγS S1P1 EC50 value indicated greater activity for the compound in the GTPγS S1P1 binding assay. Thus the compounds of the present invention may be used in treating, preventing, or curing various S1P1 receptor-related conditions. The compounds have potential use in treating, preventing, or curing autoimmune and inflammatory diseases such as multiple sclerosis, rheumatoid arthritis, inflammatory bowel disease, lupus, psoriasis, or minimizing or reducing rejection of transplanted organs.
# S1P3 = S1P3 (Homo sapiens (Human), UniProt Q99500); test: Receptor [35S] GTPγS Binding Assay, S1P3; assay type: biochemical; details: membranes from EDG3-Gal5-bla HEK293T cells
# Experimental: as §1, §2
# T1 sequence (P21453 whole entry): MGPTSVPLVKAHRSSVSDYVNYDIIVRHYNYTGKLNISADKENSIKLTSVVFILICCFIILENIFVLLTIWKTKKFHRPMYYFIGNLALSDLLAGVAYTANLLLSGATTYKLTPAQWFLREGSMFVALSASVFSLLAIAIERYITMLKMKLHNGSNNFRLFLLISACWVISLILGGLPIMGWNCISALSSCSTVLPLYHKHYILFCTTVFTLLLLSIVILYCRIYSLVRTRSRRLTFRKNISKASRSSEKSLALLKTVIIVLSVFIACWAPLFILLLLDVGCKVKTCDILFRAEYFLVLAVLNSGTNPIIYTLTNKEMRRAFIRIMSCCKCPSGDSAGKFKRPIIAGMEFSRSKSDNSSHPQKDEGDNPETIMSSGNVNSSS
# Sequence of S1P3 (Q99500 whole entry): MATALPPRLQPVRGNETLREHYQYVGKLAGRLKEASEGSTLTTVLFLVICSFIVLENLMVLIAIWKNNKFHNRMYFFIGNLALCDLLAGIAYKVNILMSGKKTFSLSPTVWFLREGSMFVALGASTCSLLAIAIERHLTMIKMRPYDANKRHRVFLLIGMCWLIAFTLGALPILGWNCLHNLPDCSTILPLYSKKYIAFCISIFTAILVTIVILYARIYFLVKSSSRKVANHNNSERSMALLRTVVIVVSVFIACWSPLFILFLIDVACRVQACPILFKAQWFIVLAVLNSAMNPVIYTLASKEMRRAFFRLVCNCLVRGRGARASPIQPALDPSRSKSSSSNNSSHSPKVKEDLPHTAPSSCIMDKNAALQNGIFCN
Compound,IC50 (S1P1 [1]),EC50 (S1P1 [2]),EC50 (S1P3)
"NC1(COP(=O)(O)O)CCN(C(=O)c2ccc(/C(=N/OCCCc3ccccc3)C(F)(F)F)cc2)C1 (stereo not drawn) [Example 65, (Z)-(3-amino-1-(4-(2,2,2-trifluoro-1-((3-phenylpropoxy)imino)ethyl)benzoyl)pyrrolidin-3-yl)methyl dihydrogen phosphate]",1990 nM,626 nM,> 6.25 µM
"CC/C(=N\OCCCc1ccccc1)c1ccc(C(=O)N2CCC(N)(COP(=O)(O)O)C2)cc1 (single isomer, unassigned) [Example 63, (E)-(3-amino-1-(4-(1-((3-phenylpropoxy)imino)propyl)benzoyl)pyrrolidin-3-yl) methyl dihydrogen phosphate]",183 nM,342 nM,> 6.25 µM
"C/C(=N\OCCCc1ccccc1)c1ccc(C(=O)N2CCC(N)(COP(=O)(O)O)C2)cc1 (single isomer, unassigned) [Example 62, (E)-(3-amino-1-(4-(1-((3-phenylpropoxy)imino)ethyl)benzoyl)pyrrolidin-3-yl)methyl dihydrogen phosphate]",1470 nM,504 nM,> 6.25 µM
"C/C(=N\OCc1ccc(C2CCCCC2)c(C(F)(F)F)c1)c1ccc(C(=O)N2CCCC(N)(COP(=O)(O)O)C2)cc1 (single isomer, unassigned) [Example 67, (E)-(3-amino-1-(4-(1-(((4-cyclohexyl-3-(trifluoromethyl)benzyl)oxy)imino)ethyl)benzoyl)piperidin-3-yl)methyl dihydrogen phosphate]",120 nM,754 nM,> 18 µM
"CC(=NOCC1CC1)c1ccc([C@@H]2CC[C@](N)(COP(=O)(O)O)C2)cc1 [Example 38, ((1R,3R)-1-amino-3-(4-(1-((cyclopropylmethoxy)imino)ethyl)phenyl)cyclopentyl)methyl Dihydrogen Phosphate]",284 nM,> 30000 nM,> 30 µM
"C/C(=N\OCc1ccc(C2CCCCC2)c(C(F)(F)F)c1)c1ccc(S(=O)(=O)N2CCC(N)(COP(=O)(O)O)CC2)cc1 [Example 70, (E)-(4-amino-1-((4-(1-(((4-cyclohexyl-3-(trifluoromethyl)benzyl)oxy)imino)ethyl)phenyl)sulfonyl)piperidin-4-yl) methyl dihydrogen phosphate]",918 nM,406 nM,> 18 µM
"CC(=NOCc1ccccc1)c1ccc([C@@H]2CC[C@](N)(COP(=O)(O)O)C2)cc1 [Example 39, ((1R,3R)-1-amino-3-(4-(1-((benzyloxy)imino)ethyl)phenyl)cyclopentyl)methyl dihydrogen phosphate]",865 nM,,
"C/C(=N\OCCCc1ccccc1)c1ccc(C(=O)N2CCC(N)(COP(=O)(O)O)CC2)cc1 [Example 57, (4-amino-1-(4-(1-((3-phenylpropoxy)imino)ethyl)benzoyl)piperidin-4-yl)methyl dihydrogen phosphate]",1870 nM,324 nM,> 60 µM
"COc1cccc(/C(C)=N/OCc2ccc([C@H]3CC[C@](N)(COP(=O)(O)O)C3)cc2)c1 [Example 54, ((1R,3S)-1-amino-3-(4-(((((E)-1-(3-methoxyphenyl)ethylidene)amino)oxy)methyl)phenyl)cyclopentyl) methyl dihydrogen phosphate]",14.2 nM,,
"CC(=NOCCc1ccccc1)c1ccc(C(=O)N2CCC(N)(COP(=O)(O)O)C2)cc1 (stereo not drawn) [Example 55, (3-amino-1-(4-(1-(phenethoxyimino)ethyl)benzoyl)pyrrolidin-3-yl)methyl Dihydrogen Phosphate]",,1560 nM,> 60 µM
"C/C(=N\OCCCc1ccccc1)c1ccc(C(=O)N2CCCC(N)(COP(=O)(O)O)C2)cc1 (single isomer, unassigned) [Example 69, (E)-(3-amino-1-(4-(1-((3-phenylpropoxy)imino)ethyl)benzoyl)piperidin-3-yl)methyl dihydrogen phosphate]",899 nM,767 nM,

# Results, then the compound that gave them:
IC50 (S1P1 [1]),EC50 (S1P1 [2]),EC50 (S1P3),Compound
31.9 nM,1.1 nM,> 30 µM,CC(=NOCCCc1ccccc1)c1ccc([C@H]2CC[C@](N)(COP(=O)(O)O)C2)cc1 [Example 52]
49.6 nM,44.4 nM,> 30 µM,"C/C(=N\OCCc1ccccc1)c1ccc(C2CC[C@](N)(COP(=O)(O)O)C2)cc1 (stereo in doubt) [Example 73, ((1R,3R)-1-amino-3-(4-((E)-1-(phenethoxyimino)ethyl)phenyl)cyclopentyl)methyl dihydrogen phosphate]"
20 nM,25.3 nM,0.773 µM,"C/C(=N\OCCCc1ccccc1)c1ccc([C@@H]2CC[C@](N)(COP(=O)(O)O)C2)cc1 [Example 41, ((1R,3R)-1-amino-3-(4-((E)-1-((3-phenylpropoxy)imino)ethyl)phenyl)cyclopentyl) methyl dihydrogen phosphate]"
5.2 nM,11.2 nM,> 60 µM,"CC(=NOCCOc1ccccc1)c1ccc([C@@H]2CC[C@](N)(COP(=O)(O)O)C2)cc1 [Example 46, ((1R,3R)-1-amino-3-(4-(1-((2-phenoxyethoxy)imino)ethyl)phenyl)cyclopentyl) methyl dihydrogen phosphate]"
,295 nM,> 60 µM,"C/C(=N\OCCc1ccccc1)c1ccc(C(=O)N2CCC(N)(COP(=O)(O)O)CC2)cc1 [Example 56, (4-amino-1-(4-(1-(phenethoxyimino)ethyl)benzoyl)piperidin-4-yl)methyl dihydrogen phosphate]"
10.5 nM,136 nM,> 3.13 µM,"C/C(=N\OCc1ccc(C2CCCCC2)c(C(F)(F)F)c1)c1ccc(C(=O)N2CCC(N)(COP(=O)(O)O)C2)cc1 (single isomer, unassigned) [Example 59, (E)-(3-amino-1-(4-(1-(((4-cyclohexyl-3-(trifluoromethyl)benzyl)oxy)imino)ethyl)benzoyl)pyrrolidin-3-yl)methyl dihydrogen phosphate]"
,17.6 nM,> 30 µM,"CC(=NOCc1ccc([N+](=O)[O-])cc1)c1ccc([C@@H]2CC[C@](N)(COP(=O)(O)O)C2)cc1 [Example 42, ((1R,3R)-1-amino-3-(4-(1-(((4-nitrobenzyl)oxy)imino)ethyl)phenyl)cyclopentyl) methyl dihydrogen phosphate]"
15.1 nM,20.3 nM,> 60 µM,CC(=NOCC1CCCCC1)c1ccc([C@@H]2CC[C@](N)(COP(=O)(O)O)C2)cc1 [Example 44]
10.7 nM,60.8 nM,> 3.12 µM,"C/C(=N\OCc1ccc(C2CCCCC2)c(C(F)(F)F)c1)c1ccc(C(=O)N2CCC(N)(COP(=O)(O)O)CC2)cc1 [Example 58, (E)-(4-amino-1-(4-(1-(((4-cyclohexyl-3-(trifluoromethyl)benzyl)oxy)imino)ethyl)benzoyl)piperidin-4-yl)methyl dihydrogen phosphate]"
28.3 nM,38.1 nM,> 60 µM,"C/C(=N\OCc1ccc(C2CCCCC2)c(C(F)(F)F)c1)c1ccc([C@@H]2CC[C@](N)(COP(=O)(O)O)C2)cc1 [Example 40, ((1R,3R)-1-amino-3-(4-((E)-1-(((4-cyclohexyl-3-(trifluoromethyl)benzyl)oxy)imino)ethyl)phenyl)cyclopentyl) methyl dihydrogen phosphate]"
,26.4 nM,> 30 µM,"CC(=NOCc1ccc(F)cc1)c1ccc([C@@H]2CC[C@](N)(COP(=O)(O)O)C2)cc1 [Example 43, ((1R,3R)-1-amino-3-(4-(1-(((4-fluorobenzyl)oxy)imino)ethyl)phenyl)cyclopentyl) methyl dihydrogen phosphate]"
